Measurements as given in patent publication EP3558896B1, “USE OF ARYL S[…] TRIAMIDE UREASE INHIBITORS WITH PHOSPHORUS-[…] FERTILIZERS” (BASF SE, priority 2016, dated 2018).

Experiment: Decomposition of urease inhibitors on treated urea granules mixed with triple super phosphate (TSP) granules
Type: physicochemical
Details: after one day in the absence of TSP granules

Structure (SMILES)	decomposition of the urease inhibitors
CCCCNP(N)(N)=S [NBPT, N-n-butylthiophosphoric acid triamide]	no decomposition
CCCNP(N)(N)=S [NPPT, N-n-propylthiophosphoric acid triamide]	no decomposition
